The values below come from patent US6294650A, “Inhibition of mammalian telomerase by peptide nucleic acids” (The Board of Regents, University of Texas System, priority 1999, dated 2001).

Where two headings read alike, the source gives them in different places.

A word on the IC50: it is the concentration that inhibits the measured activity by half. A word on the Km: it is the concentration of substrate that gives half-maximal velocity.

Data set [1] relates to human telomerase. The data set can be described thus: TRAPeze telomerase assay, HME50-5 cell lysate preincubated with PNA (PNA scanning). Format: biochemical. The following applies: 25° C., 30 min preincubation.
Method: The source of telomerase was human immortal primary breast epithelial cell line (HME50-5). Cultured cells (10^5 -10^6) were lysed as recommended in the protocol supplied by Oncor. Cell lysates containing 200 cell equivalents were preincubated at 25° C. for 30 minutes with PNA (0 to 100 μM, diluted in 10 mM Tris pH 8.3 and 10 μg ml^-1 bovine serum albumin (BSA)). PNAs sometime aggregated upon prolonged storage, so PNA stocks were briefly heated to 55° C. prior to addition to assay mixtures to ensure reproducible inhibition. Following preincubation, TRAPeze reaction mixture (20 mM Tris-HCl, pH 8.3, 1.5 mM MgCl2, 63 mM KCl, 0.05% Tween 20, 1 mM EGTA, and 0.01% BSA, 50 μM dNTPs, and primer mix supplied in the kit) was added directly to the mixture of PNA and cell extract. This reaction was incubated at 25° C. for 30 minutes to allow telomerase to elongate the TS primer. […] The tubes were transferred to a PCR thermocycler, and a two-step cycle (30 sec 94° C. and 30 sec 60° C.) was performed 27 times. Samples were analyzed using nondenaturing polyacrylamide gel electrophoresis.
Telomerase products and an internal PCR control were quantitated by phosphorimager analysis (Molecular Dynamics). The lanes were divided into one region encompassing the telomerase products and another including the internal standard signal. The radioisotope density was integrated for each area, and the ratio of telomerase product to internal standard was determined. This value was normalized to a positive control (no PNA added) where the ratio of telomerase products to internal standard was assigned 100% activity. The extent inhibition was plotted against the final PNA concentration used in the preincubation reaction, and these graphs were used to estimate the IC50 values.
These PNAs were incubated with telomerase-containing cell extracts derived from a human immortal primary breast epithelial cell line (HME50-5) and assayed their influence on telomerase activity using the telomere repeat amplification protocol (TRAP) (Holt et al., supra).
Data set [2] concerns complementary DNA oligonucleotides. The data set can be described thus: Melting temperature of PNA:DNA duplexes, absorbance at 260 nm. Format: physicochemical. The settings on record: PNA with complementary DNA, 20 μM each, 1.0 M phosphate pH 7.6. How it is done: Determinations were done in a volume of 0.5 mL in a capped cuvette. […] Absorbance was recorded from 25° C. to 90° C. in 4° C. or 5° C. increments using a 2 minute equilibration time between each measurement. DNA oligonucleotides used for measuring Tm values, and their complementary PNAs were as follows; [NT] […] ID NO:31) ([…] ID NO:32) (PNAs 7, 17). Melting temperatures were measured (Tm) of duplexes between PNAs and their DNA complements to ensure that the PNAs used in these studies could form duplexes with complementary sequences at the assay temperature of 25° C. DNA oligonucleotides were used because employment of DNA rather than RNA facilitated analysis of the large number of PNAs that required assay. Comparison to RNA:PNA melting temperatures is justified because Tm 's for PNA:DNA and PNA:RNA hybrids are similar.

Data set [3] deals with human telomerase. The data set can be described thus: Km app of telomerase for TS primer (TRAP assay with varied TS primer). Format: biochemical. The settings on record: TS primer 0 to 60 nM, 30 min at 25° C.; read-out: apparent binding constant, Km app, of telomerase for TS primer. On the procedure:
Telomerase assays were performed essentially as described above with slight modifications. Both the TS and CX primers (0.1 μg) were placed below the wax barrier and the concentration of TS primer was varied from 0 nM to 60 nM, above the wax barrier, in the reaction mixture. The reaction was allowed to proceed for 30 minutes at 25° C. followed by PCR as described. The products were quantitated as described with telomerase activity relative to control plotted versus the TS primer concentration.
To put the efficiency of inhibition into context, the affinity of the TS primer for telomerase was determined. Primer affinity of telomerase was determined by monitoring the level of telomerase activity as a function of concentration of the TS primer. The TS primer is complementary to only three bases of the RNA template of the hTR, and was not initially expected to bind tightly to telomerase. The TRAP assay was performed as described, except that the concentration of the TS primer above the wax barrier was varied from 0 to 60 nM. The concentration of TS primer below the wax barrier was varied to keep the total concentration constant.

For PNA 4: PNA, sequence GGGTTAGACAA, the IC50 in the data set with human telomerase [1] (read-out: IC50 (μM), Table 2) was determined as 0.01 µM; in the data set with human telomerase [1] (read-out: IC50 for inhibition of telomerase (text)), 0.01 µM. Moreover, the “Tm ° C., Table 2” value in data set [2] came out at 67 °C; in data set [2] (listed as 4), 71 °C.
As for “PNA 15: PNA, sequence GCCCTTCTCAG (all peptide nucleic acid (PNA))”, in the data set on human telomerase [1] (read-out: IC50 (μM), Table 2), the IC50 was 0.5 µM. For the same substance, the “Tm ° C., Table 2” value in data set [2] worked out at 56 °C.
For the substance “TS primer: oligonucleotide primer that can be extended by telomerase, 5'-AATCCGTCGAGCAGAGTT-3' (further chemistry not given here)”, the Km in the data set on human telomerase [3] was determined as 8 nM.
